Values of other authors in patent US20210346426A1, “COMPOSITION AND METHOD FOR THE TREATMENT OF COVID-19” (priority 2020, published 2021).

How the values were obtained:
[1] = even at high concentration
blood coagulation [2] = system: blood coagulation
[3] = after oral administration
blood coagulation [4] = settings: intravenous injection

Structure (SMILES) | effect in contact with skin [1] | Acidity (pKa) pKa2 | effect on blood coagulation in vitro (blood coagulation [2]) | excreted unchanged in urine [3] | oxidation of the citrate ion [3] | coagulation times of the blood (blood coagulation [4])
O=C(O)CC(O)(CC(=O)O)C(=O)O [Citric acid, 2-Hydroxypropane-1,2,3-tricarboxylic acid] | not injurious | pKa2 = 4.76 | – | – | – | –
O=C([O-])CC(O)(CC(=O)[O-])C(=O)[O-].[Na+].[Na+].[Na+] [sodium citrate, Sodium Citrate] | – | – | prevents the blood from coagulation | – | – | –
O=C(O)CC(O)(CC(=O)O)C(=O)O [citrate ion] | – | – | acts as an anticoagulant | less than 1% | rapidly and almost completely oxidized | shortens
